From PMC7410094 (ACS chemical biology, 2020) come the findings set out here.

In one experiment the target is MelBEC (Escherichia coli, UniProt P02921). Briefly: Trp to dansyl FRET. The class given is binding. As to conditions: MTG-E13 micelles (response lost in DDM); active site.
For another experiment, the target named is MelBSt (Salmonella enterica, UniProt P30878). Briefly: Trp to dansyl FRET. Format: binding. As to conditions: DDM or MTG-E13 micelles; active site.
In another experiment the target is β2AR (Homo sapiens, UniProt P07550). Put plainly: radioligand binding assay. Conditions: labelled compound; antagonist; DDM or MTG micelles at CMC+0.2 wt%.
Chain of β2AR (P07550 whole entry): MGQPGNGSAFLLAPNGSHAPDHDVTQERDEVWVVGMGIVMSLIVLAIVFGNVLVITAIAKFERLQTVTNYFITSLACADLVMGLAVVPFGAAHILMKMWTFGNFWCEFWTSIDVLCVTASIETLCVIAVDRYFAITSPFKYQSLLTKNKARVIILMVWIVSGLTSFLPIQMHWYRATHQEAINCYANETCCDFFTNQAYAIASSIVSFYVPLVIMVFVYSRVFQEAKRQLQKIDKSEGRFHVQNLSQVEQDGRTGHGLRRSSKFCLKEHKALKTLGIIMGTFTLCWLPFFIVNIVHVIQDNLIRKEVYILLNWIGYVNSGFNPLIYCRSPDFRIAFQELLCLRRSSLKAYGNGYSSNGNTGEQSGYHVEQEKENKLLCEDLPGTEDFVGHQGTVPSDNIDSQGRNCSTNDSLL

Chain of MelBEC (P02921 2-473): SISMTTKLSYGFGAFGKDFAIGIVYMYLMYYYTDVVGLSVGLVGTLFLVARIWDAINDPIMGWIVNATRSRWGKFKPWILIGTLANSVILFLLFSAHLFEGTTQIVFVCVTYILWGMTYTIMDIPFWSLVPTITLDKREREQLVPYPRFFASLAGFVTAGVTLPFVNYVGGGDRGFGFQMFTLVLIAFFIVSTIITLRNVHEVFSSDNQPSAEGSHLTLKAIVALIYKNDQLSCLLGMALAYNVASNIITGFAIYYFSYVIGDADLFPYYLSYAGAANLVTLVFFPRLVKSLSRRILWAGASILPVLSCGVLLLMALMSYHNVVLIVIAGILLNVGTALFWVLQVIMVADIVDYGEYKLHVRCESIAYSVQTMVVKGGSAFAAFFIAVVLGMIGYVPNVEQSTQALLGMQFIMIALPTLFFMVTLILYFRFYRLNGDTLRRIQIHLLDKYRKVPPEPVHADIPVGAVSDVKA
Chain of MelBSt (P30878 whole entry): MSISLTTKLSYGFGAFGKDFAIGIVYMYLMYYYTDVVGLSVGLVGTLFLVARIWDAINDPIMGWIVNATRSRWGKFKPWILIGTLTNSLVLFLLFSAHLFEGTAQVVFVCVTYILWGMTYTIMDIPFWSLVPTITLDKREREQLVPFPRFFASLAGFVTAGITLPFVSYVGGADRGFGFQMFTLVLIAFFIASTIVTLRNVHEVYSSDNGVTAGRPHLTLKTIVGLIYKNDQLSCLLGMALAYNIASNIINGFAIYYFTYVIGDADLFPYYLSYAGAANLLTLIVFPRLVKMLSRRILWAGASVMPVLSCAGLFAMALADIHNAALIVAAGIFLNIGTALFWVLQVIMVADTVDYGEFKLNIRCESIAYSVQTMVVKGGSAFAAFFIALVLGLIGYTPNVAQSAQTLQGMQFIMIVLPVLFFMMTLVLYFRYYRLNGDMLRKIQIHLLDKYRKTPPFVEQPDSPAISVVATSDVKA

As for `CN(C)c1cccc2c(S(=O)(=O)NCCS[C@@H]3O[C@H](CO)[C@H](O)[C@H](O)[C@H]3O)cccc12` [D^2G, 2’-(N-dansyl)aminoalkyl-1-thio-β-D-galactopyranoside], the “Trp to dansyl FRET” value at MelBEC is “MTG-E13, was effective at preserving the functionality of this less stable MelB homologue”; at MelBSt it was “DDM-solubilized MelBSt showed initial increase and subsequent decrease in the fluorescence signal”.
On to `CCCc1ccccc1OCC(O)CNC(C)C` (stereo not drawn) [[^3H]-dihydroalprenolol], for which, on β2AR, the radioligand binding assay result is “the MTGs led to [^3H]-DHA-binding capability of the receptor comparable to DDM”.
